Measurements as given in ChEMBL document CHEMBL5126652, “Boron-Containing Pyrazole Compounds as JAK Inhibitors for Treating Inflammation, Autoimmune Diseases, and Cancer” (ACS Med Chem Lett, 2022).

Target: Tyrosine-protein kinase JAK1 (Homo sapiens, UniProt P23458)
Experiment: Inhibition of JAK1 (unknown origin) preincubated for 20 mins followed by 33P-ATP addition and measured after 2 hrs by filter binding assay

Sequence of Tyrosine-protein kinase JAK1 (P23458 whole entry): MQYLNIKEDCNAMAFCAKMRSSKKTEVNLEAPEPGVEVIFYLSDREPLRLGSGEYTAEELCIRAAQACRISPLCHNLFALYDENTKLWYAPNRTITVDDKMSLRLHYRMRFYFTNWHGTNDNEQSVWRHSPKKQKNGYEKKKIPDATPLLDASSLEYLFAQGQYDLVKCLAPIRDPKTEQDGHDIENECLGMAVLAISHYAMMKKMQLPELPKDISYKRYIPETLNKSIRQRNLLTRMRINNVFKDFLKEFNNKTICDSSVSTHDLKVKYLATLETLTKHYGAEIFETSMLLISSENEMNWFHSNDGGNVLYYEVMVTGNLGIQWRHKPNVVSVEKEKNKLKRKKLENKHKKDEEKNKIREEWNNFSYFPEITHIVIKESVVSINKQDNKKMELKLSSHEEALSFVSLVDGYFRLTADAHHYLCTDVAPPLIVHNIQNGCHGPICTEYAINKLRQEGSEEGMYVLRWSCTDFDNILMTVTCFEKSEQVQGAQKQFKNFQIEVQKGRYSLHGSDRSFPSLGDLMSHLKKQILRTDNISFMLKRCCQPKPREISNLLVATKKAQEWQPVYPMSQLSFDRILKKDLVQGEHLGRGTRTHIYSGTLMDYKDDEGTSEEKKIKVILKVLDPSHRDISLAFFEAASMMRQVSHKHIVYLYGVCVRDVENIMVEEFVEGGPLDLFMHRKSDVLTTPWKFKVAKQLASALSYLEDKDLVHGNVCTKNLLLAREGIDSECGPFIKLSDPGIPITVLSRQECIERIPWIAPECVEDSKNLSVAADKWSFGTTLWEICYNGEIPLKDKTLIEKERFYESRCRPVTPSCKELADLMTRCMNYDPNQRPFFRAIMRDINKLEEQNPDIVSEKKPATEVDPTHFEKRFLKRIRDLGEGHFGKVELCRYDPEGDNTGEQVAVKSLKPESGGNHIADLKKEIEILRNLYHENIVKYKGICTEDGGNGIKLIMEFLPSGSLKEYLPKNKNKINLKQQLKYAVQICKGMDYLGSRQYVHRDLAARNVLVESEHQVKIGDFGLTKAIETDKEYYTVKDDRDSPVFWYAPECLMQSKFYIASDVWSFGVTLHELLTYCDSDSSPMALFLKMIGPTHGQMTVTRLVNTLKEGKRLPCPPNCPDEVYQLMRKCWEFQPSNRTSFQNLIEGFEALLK

Structure (SMILES) | IC50
N#CC1CCCC1n1cc(C(N)=O)c(Nc2ccc3c(c2)C=CB(O)O3)n1 (stereo unspecified) | < 10 nM
N#CC1CCOCC1n1cc(C(N)=O)c(Nc2ccc3c(c2)C(Cl)=CB(O)O3)n1 (stereo unspecified) | < 10 nM
N#CC1CCOCC1n1cc(C(N)=O)c(Nc2cc(Cl)c3c(c2)COB3O)n1 (stereo unspecified) | < 10 nM
N#CC1CCOCC1n1cc(C(N)=O)c(Nc2ccc3c(c2)C2CC2B(O)O3)n1 (stereo unspecified) | < 10 nM
N#CC1CCCC1n1cc(C(N)=O)c(Nc2ccc3c(c2)COB3O)n1 (stereo unspecified) | < 10 nM
N#CC1CCOCC1n1cc(C(N)=O)c(Nc2cc(F)c3c(c2)COB3O)n1 (stereo unspecified) | < 10 nM
